# Laboratory results as given in paper PMC6472001, “Phenolic Compounds from Humulus lupulus as Natural Antimicrobial Products: New Weapons in the Fight against Methicillin Resistant Staphylococcus aureus, Leishmania mexicana and Trypanosoma brucei Strains” (Molecules, 2019).
# Like-named read-outs stand apart in the source and are kept apart here.
# Columns and labels:
# S. aureus T28.1 = test: Kill curves; assay type: cell-based, Staphylococcus aureus
# Method: This experiment allowed following in time the effect of the product on a growing bacterial population, highlighting the bactericidal or bacteriostatic effect. Stock solutions of xanthohumol, desmethylxanthohumol and lupulone were prepared in DMSO 20 times more concentrated than the desired final concentrations (MIC/4 to 4xMIC). An aliquot of 0.5 mL of purified product in DMSO was added to 8.5 mL of brain heart infusion (BHI) medium (Oxoid, UK). 1 mL of bacterial suspension at 10^5 CFU/mL was then introduced to the culture tube. A 5% DMSO control served as a negative control and was performed at each test. Culture tubes were incubated at 37 °C for 24 h. Counts were made every 2 h until 8 h and at 24 h by plating aliquots of serial tenfold dilutions on MHA. The determined bacterial concentrations were then converted into log(CFU/mL) and were expressed as a function of time. The detection threshold of this method was 10 CFU/mL and 1 log(CFU/mL) on graphics.
# [1] = test system: WI-38 cells (non-cancer lung fibroblasts); test: Cytotoxicity / antiproliferative effect; assay type: cell-based, human
# Method: (§1) Several human cell lines were used for the cytotoxic bioassays: non-cancer lung fibroblasts (WI-38), hepatocellular carcinoma (Hep-G2), osteosarcoma (MG-63) and the mouse monocyte macrophage J774. Cells were seeded into wells of a 96-well microplate in a Gibco™ Dulbecco’s modified eagles medium (DMEM), except for MG-63 which were cultivated in a minimum essential medium (MEM) (ThermoFisher Scientific, Illkirch-Graffenstaden, France). Both media were enriched with 10% FBS (ThermoFisher Scientific, France) and some antibiotics (mixture penicillin/streptomycin 100 UI/mL, Sigma Aldrich). After one or two days at 37 °C (5% of CO2), wells were emptied by suction. Cells were then treated with hops compounds (xanthohumol, desmethylxanthohumol, humulone, lupulone) in DMSO at 0.2% in the culture medium, to obtain a final volume of 100 µL in wells (negative control: 0.2% DMSO). Camptothecin was used as a positive control. After 48 to 72 h exposure, culture medium was replaced by 10% of Alamar blue or 3-(4,5-dimethylthiazol-2-yl)-2,5-diphenyltetrazolium bromide (MTT) in the medium (ThermoFisher Scientific®, Illkirch, France) and plates were incubated the time necessary to the reaction. Results were measured respectively by fluorescence (excitation 530 nm and emission 590 nm) or by optical density at 550 nm. The IC50 of each product was determined using GraphPad Prism (version 5.01).
# [2] = test system: Hep-G2 cells (hepatocellular carcinoma); test: Cytotoxicity / antiproliferative effect; assay type: cell-based, human
# Method: as §1
# S. aureus 08143 (MSSA) = test: Broth microdilution MIC; assay type: cell-based, Staphylococcus aureus; conditions: S. aureus 08143 (MSSA)
# Method: (§2) The protocol employed was inspired by Abedini et al. with some modifications. Products were solubilized in DMSO and serially diluted two-fold in MH medium. A bacterial suspension at 10^5 CFU/mL was added to obtain a final volume of 200 µL. Final phenolic product concentrations in wells ranged from 625 to 2.4 µg/mL (exception for lupulone for which dilutions were continued until 0.3 µg/mL). […] Plates were incubated overnight with stirring (60 rpm) at 37 °C.
# S. aureus T26A4 (MSSA) = test: Broth microdilution MIC; assay type: cell-based, Staphylococcus aureus; conditions: S. aureus T26A4 (MSSA)
# Method: as §2
# S. aureus T25.10 (MRSA) = test: Broth microdilution MIC; assay type: cell-based, Staphylococcus aureus; conditions: S. aureus T25.10 (MRSA)
# Method: as §2
# [3] = test system: MG-63 cells (osteosarcoma); test: cells; assay type: cell-based, human
# Method: as §1
# S. aureus T28.1 biofilm = test: Anti-biofilm: biofilm formation on artificial surface; assay type: cell-based, Staphylococcus aureus
# Method: These experiments were inspired and adapted from Liu et al.. They were performed using a 96-well microplate with a flat bottom.
# First, the effect of xanthohumol, desmethylxanthohumol and lupulone was assessed on the biofilm formation: 180 µL of BHI medium containing glucose at 10 mg/mL was added to each well of a 96-well microplate with 10 µL of the product previously solubilized in DMSO and 10 µL of a 10^5 CFU/mL bacterial suspension. The maximum concentration in DMSO was 5%. Final concentrations of purified products were from MIC/4 to 4 × MIC. After 24 h incubation at 37 °C, wells were voided and washed 3 times with phosphate buffered saline solution (PBS, Sigma-Aldrich, Saint-Quentin Fallavier, France). Plates were then dried and 150 µL of crystal violet solution at 20 mg/mL in MeOH (Sigma-Aldrich®, Saint-Quentin Fallavier, France) were added for 15 min. After removing crystal violet, 150 µL of EtOH were added to solubilize crystal violet present in adherent bacteria. The optical density was read at 570 nm.
# [4] = test system: J774 cells (monocyte macrophage); test: Cytotoxicity / antiproliferative effect; assay type: cell-based, mouse
# Method: as §1
# [5] = test system: Leishmania mexicana mexicana (Lmm); test: Antiparasitic activity, broth microdilution; assay type: cell-based
# Method: (§3) Tbb were cultivated in HMI9 medium containing 10% heat-inactivated foetal bovine serum (FBS) (Sigma-Aldrich), […] L-cysteine and […] beta-mercaptoethanol at 37 °C (CO2 5%). Lmm (MHOM/BZ/84/BEL46) were cultivated in SDM-79 medium (Gibco) supplemented with 15% heat-inactivated FBS (Sigma-Aldrich) and 5 mg/L hemin at 28 °C (CO2 5%). Antiparasitic bioassays were performed as described by Bero et al.. Suramin (SUR) and pentamidine (PEN) were used as positive controls respectively. The hops compounds (xanthohumol, desmethylxanthohumol, humulone, lupulone) concentration that inhibits 50% of the cell viability (IC50) was determined using GraphPad Prism, version 5.01 (GraphPad Software, San Diego, CA, USA).
# [6] = test system: Trypanosoma brucei brucei (Tbb); test: Antiparasitic activity, broth microdilution; assay type: cell-based
# Method: as §3
# S. aureus T28.1 (MRSA) = test: Broth microdilution MIC; assay type: cell-based, Staphylococcus aureus
# Method: as §2
# For the following experiments, the MRSA strain T28.1, isolated from a pathological sample of osteitis, was used. It was previously characterized by DNA biochips, which allowed highlighting some β-lactamases and the SCC-mec genes confirming the methicillin resistance. Moreover, genes for enzymes and proteins involved in the capsule biosynthesis (capH5, capJ5 and capK5) and several intracellular adhesion proteins implicated in biofilm formation (icaA, icaC and icaD) were present.
# [7] = value in parentheses, read-out: IC50 (converted)
# [8] = value in parentheses, read-out: MIC
# [9] = Homo sapiens, read-out: IC50 ± SD
# [10] = Homo sapiens, value in parentheses, read-out: IC50 (converted)
# [11] = Homo sapiens, HepG2, read-out: IC50 ± SD
# [12] = Homo sapiens, HepG2, value in parentheses, read-out: IC50 (converted)
# [13] = Staphylococcus aureus, read-out: MIC
# [14] = Staphylococcus aureus, value in parentheses, read-out: MIC
# [15] = Homo sapiens, MG-63, read-out: IC50 ± SD
# [16] = Homo sapiens, MG-63, value in parentheses, read-out: IC50 (converted)
# [17] = Mus musculus, read-out: IC50 ± SD
# [18] = Mus musculus, value in parentheses, read-out: IC50 (converted)
# [19] = Leishmania mexicana, read-out: IC50 (converted)
# [20] = Leishmania mexicana, value in parentheses, read-out: IC50 (converted)
# [21] = Trypanosoma brucei, read-out: IC50 (converted)
# [22] = Trypanosoma brucei, value in parentheses, read-out: IC50 (converted)
# [23] = Staphylococcus aureus, S. aureus T28.1 (MRSA), read-out: MIC
# [24] = Staphylococcus aureus, S. aureus T28.1 (MRSA), value in parentheses, read-out: MIC
compound,measurement,setting,value
lupulone,Reduction between the control and 2 × MIC,S. aureus T28.1; 2 × MIC,about 3 log(CFU/mL)
same,Kill curve effect at 4 × MIC,S. aureus T28.1; 4 × MIC,slightly decreased the bacterial population
same,IC50 ± SD,[1],1.1 ± 0.0 µg/mL
same,IC50,[1]; [7],2.6 µM
same,IC50 ± SD,[2],1.2 ± 0.5 µg/mL
same,IC50,[2]; [7],2.9 µM
same,MIC,S. aureus 08143 (MSSA),1.2 µg/mL
same,MIC,S. aureus 08143 (MSSA); [8],2.9 µM
same,MIC,S. aureus T26A4 (MSSA),0.6 µg/mL
same,MIC,S. aureus T26A4 (MSSA); [8],1.45 µM
same,MIC,S. aureus T25.10 (MRSA),0.6 µg/mL
same,MIC,S. aureus T25.10 (MRSA); [8],1.45 µM
same,cell viability,[3],~100%
same,IC50 ± SD,[3]; MG-63,4.3 ± 0.4 µg/mL
same,IC50,"[3]; MG-63, value in parentheses, read-out: IC50 (converted)",10.4 µM
same,selectivity index,[3]; antibacterial activity compared to cytotoxicity against MG-63,> 4
same,Biofilm formation on artificial surface,S. aureus T28.1 biofilm; sub-inhibitory concentrations,significant inhibition
same,IC50 ± SD,[4],1.5 ± 0.1 µg/mL
same,IC50,[4]; [7],3.6 µM
same,IC50,[5],4.7 ± 0.1 µg/mL
same,IC50,[5]; [7],11.3 µM
same,IC50,[6],0.9 ± 0.0 µg/mL
same,IC50,[6]; [7],2.2 µM
same,MIC,S. aureus T28.1 (MRSA); S. aureus T28.1 (MRSA),1.2 µg/mL
same,MIC,"S. aureus T28.1 (MRSA); S. aureus T28.1 (MRSA), value in parentheses, read-out: MIC",2.9 µM
same,MIC,S. aureus T28.1 (MRSA); strain MRSA T28.1,1.2 µg/mL
"COc1cc(O)c(CC=C(C)C)c(O)c1C(=O)/C=C/c1ccc(O)cc1 [XN, xanthohumol]",Decrease of the bacterial population,"S. aureus T28.1; 2xMIC, first 4 h",around 3 log(CFU/mL)
same,Decrease of the bacterial population,"S. aureus T28.1; MIC/2, first 6 h",0.5 log(CFU/mL)
same,Decrease of the bacterial population,"S. aureus T28.1; at the MIC, during 24 h",2 log(CFU/mL)
same,IC50,[1]; [9],6.9 ± 0.5 µg/mL
same,IC50,[1]; [10],19.5 µM
same,IC50,[2]; [11],2.5 ± 0.8 µg/mL
same,IC50,[2]; [12],7.1 µM
same,MIC,S. aureus 08143 (MSSA); [13],19.5 µg/mL
same,MIC,S. aureus 08143 (MSSA); [14],55 µM
same,MIC,S. aureus T26A4 (MSSA); [13],9.8 µg/mL
same,MIC,S. aureus T26A4 (MSSA); [14],27.7 µM
same,MIC,S. aureus T25.10 (MRSA); [13],9.8 µg/mL
same,MIC,S. aureus T25.10 (MRSA); [14],27.7 µM
same,IC50,[3]; [15],10.4 ± 2.6 µg/mL
same,IC50,[3]; [16],29.4 µM
same,Biofilm formation on artificial surface,S. aureus T28.1 biofilm; at the MIC,totally inhibited
same,Inhibition of biofilm formation,S. aureus T28.1 biofilm; at the MIC,~100%
same,IC50,[4]; [17],3.4 ± 0.5 µg/mL
same,IC50,[4]; [18],9.6 µM
same,IC50,[5]; [19],6.1 ± 3.1 µg/mL
same,IC50,[5]; [20],17.2 µM
same,IC50,[6]; [21],2.4 ± 0.2 µg/mL
same,IC50,[6]; [22],6.8 µM
same,MIC,S. aureus T28.1 (MRSA); [23],9.8 µg/mL
same,MIC,S. aureus T28.1 (MRSA); [24],27.7 µM
"CC(C)=CCc1c(O)cc(O)c(C(=O)/C=C/c2ccc(O)cc2)c1O [DMX, desmethylxanthohumol]",Bacterial population reached (detection threshold),"S. aureus T28.1; 2 × MIC, after 24 h",1 log(CFU/mL)
same,IC50,[1]; [9],60.7 ± 2.5 µg/mL
same,IC50,[1]; [10],178 µM
same,IC50,[2]; [11],22.4 ± 2.9 µg/mL
same,IC50,[2]; [12],65.9 µM
same,MIC,S. aureus 08143 (MSSA); [13],39 µg/mL
same,MIC,S. aureus 08143 (MSSA); [14],115 µM
same,MIC,S. aureus T26A4 (MSSA); [13],39 µg/mL
same,MIC,S. aureus T26A4 (MSSA); [14],115 µM
same,MIC,S. aureus T25.10 (MRSA); [13],19.5 µg/mL
same,MIC,S. aureus T25.10 (MRSA); [14],57.3 µM
same,IC50,[3]; [15],39.5 ± 3.3 µg/mL
same,IC50,[3]; [16],116 µM
same,Biofilm formation on artificial surface,S. aureus T28.1 biofilm; sub-inhibitory concentrations,significant inhibition
same,IC50,[4]; [17],9.7 ± 1 µg/mL
same,IC50,[4]; [18],28.5 µM
same,IC50,[5]; [19],26.2 ± 1.8 µg/mL
same,IC50,[5]; [20],77 µM
same,IC50,[6]; [21],7.7 ± 0.6 µg/mL
same,IC50,[6]; [22],22.6 µM
same,MIC,S. aureus T28.1 (MRSA); [23],39 µg/mL
same,MIC,S. aureus T28.1 (MRSA); [24],115 µM
